Laboratory results published in patent US4535161A, “Benzoquinolizine derivatives” (Daiichi Seiyaku Co., Ltd., priority 1982, dated 1985).
Values after ≈ are worked out from the molar mass of the structure shown. Counter-ions that a name gives are not always drawn. Like-named read-outs stand apart in the source and are kept apart here.

Experiments:
Ps. aeruginosa, 32122 = assay: Antibacterial activity (MIC), Table 1: Ps. aeruginosa, 32122; format: cell-based; conditions: Pseudomonas aeruginosa, Mueller-Hinton Broth, 10^6/ml, 37° C., 18 hours
Method: (§1) *Determined by the standard method of the Japan Society of Chemoterapy:
(§2) (MuellerHinton Broth medium), 10^6 /ml of bacteria were seeded and
(§3) incubated at 37° C. for 18 hours.

Pr. mirabilis, IFO-3849 = assay: Antibacterial activity (MIC), Table 1: Pr. mirabilis, IFO-3849; format: cell-based; conditions: Proteus mirabilis, IFO3849, Mueller-Hinton Broth, 10^6/ml, 37° C., 18 hours
Method: as §1, §2, §3

[1] = tested on: Str. faecalis, ATCC-19433; assay: Antibacterial activity (MIC), Table 1: Str. faecalis, ATCC-19433; format: cell-based; conditions: Enterococcus faecalis, ATCC19433, Mueller-Hinton Broth, 10^6/ml, 37° C., 18 hours
Method: as §1, §2, §3

E. coli, NIHJ = assay: Antibacterial activity (MIC), Table 1: E. coli, NIHJ; format: cell-based; conditions: Escherichia coli, Mueller-Hinton Broth, 10^6/ml, 37° C., 18 hours
Method: as §1, §2, §3

Gram-positive bacteria = assay: Antibacterial activity against Gram-positive bacteria (summary of Table 1); format: cell-based; conditions: in words
Method: as §1, §2, §3

Ps. aeruginosa, 32104 = assay: Antibacterial activity (MIC), Table 1: Ps. aeruginosa, 32104; format: cell-based; conditions: Pseudomonas aeruginosa, Mueller-Hinton Broth, 10^6/ml, 37° C., 18 hours
Method: as §1, §2, §3

S. epidermidis, 56500 = assay: Antibacterial activity (MIC), Table 1: S. epidermidis, 56500; format: cell-based; conditions: Staphylococcus epidermidis, Mueller-Hinton Broth, 10^6/ml, 37° C., 18 hours
Method: as §1, §2, §3

Ser. marcescens, 10104 = assay: Antibacterial activity (MIC), Table 1: Ser. marcescens, 10104; format: cell-based; conditions: Serratia marcescens, Mueller-Hinton Broth, 10^6/ml, 37° C., 18 hours
Method: as §1, §2, §3

Pr. vulgaris, 08602 = assay: Antibacterial activity (MIC), Table 1: Pr. vulgaris, 08602; format: cell-based; conditions: Proteus vulgaris, Mueller-Hinton Broth, 10^6/ml, 37° C., 18 hours
Method: as §1, §2, §3

Sh. flexneri, 2a, 5503 = assay: Antibacterial activity (MIC), Table 1: Sh. flexneri, 2a, 5503; format: cell-based; conditions: Shigella flexneri, Mueller-Hinton Broth, 10^6/ml, 37° C., 18 hours
Method: as §1, §2, §3

S. aureus, 209 P = assay: Antibacterial activity (MIC), Table 1: S. aureus, 209 P; format: cell-based; conditions: Staphylococcus aureus, Mueller-Hinton Broth, 10^6/ml, 37° C., 18 hours
Method: as §1, §2, §3

Ps. aeruginosa, 32234 = assay: Antibacterial activity (MIC), Table 1: Ps. aeruginosa, 32234; format: cell-based; conditions: Pseudomonas aeruginosa, Mueller-Hinton Broth, 10^6/ml, 37° C., 18 hours
Method: as §1, §2, §3

Str. pyogenes, G-36 = assay: Antibacterial activity (MIC), Table 1: Str. pyogenes, G-36; format: cell-based; conditions: Streptococcus pyogenes, G36, Mueller-Hinton Broth, 10^6/ml, 37° C., 18 hours
Method: as §1, §2, §3

Ps. aeruginosa, 32233 = assay: Antibacterial activity (MIC), Table 1: Ps. aeruginosa, 32233; format: cell-based; conditions: Pseudomonas aeruginosa, Mueller-Hinton Broth, 10^6/ml, 37° C., 18 hours
Method: as §1, §2, §3

K. pneumoniae, type 1 = assay: Antibacterial activity (MIC), Table 1: K. pneumoniae, type 1; format: cell-based; conditions: Klebsiella pneumoniae, TYPE1, Mueller-Hinton Broth, 10^6/ml, 37° C., 18 hours
Method: as §1, §2, §3

B. subtilis, ATCC-6633 = assay: Antibacterial activity (MIC), Table 1: B. subtilis, ATCC-6633; format: cell-based; conditions: Bacillus subtilis, ATCC6633, Mueller-Hinton Broth, 10^6/ml, 37° C., 18 hours
Method: as §1, §2, §3

Ps. aeruginosa, 32121 = assay: Antibacterial activity (MIC), Table 1: Ps. aeruginosa, 32121; format: cell-based; conditions: Pseudomonas aeruginosa, Mueller-Hinton Broth, 10^6/ml, 37° C., 18 hours
Method: as §1, §2, §3

Ent. cloacae, 03400 = assay: Antibacterial activity (MIC), Table 1: Ent. cloacae, 03400; format: cell-based
Method: as §1, §2, §3

Pseudomonas aeruginosa = assay: Antibacterial activity against Pseudomonas aeruginosa (summary of Table 1); format: cell-based; conditions: in words
Method: as §1, §2, §3

[2] = Acute toxicity (LD50) in mice (i.v.); conditions: mouse, in vivo, iv

Compound	MIC (Ps. aeruginosa, 32122)	MIC (Pr. mirabilis, IFO-3849)	MIC [1]	MIC (E. coli, NIHJ)	MIC (Ps. aeruginosa, 32104)	MIC (S. epidermidis, 56500)	MIC (Ser. marcescens, 10104)	MIC (Pr. vulgaris, 08602)	MIC (Sh. flexneri, 2a, 5503)	MIC (S. aureus, 209 P)	MIC (Ps. aeruginosa, 32234)	MIC (Str. pyogenes, G-36)	MIC (Ps. aeruginosa, 32233)	MIC (K. pneumoniae, type 1)	MIC (B. subtilis, ATCC-6633)	MIC (Ps. aeruginosa, 32121)	also measured
C=C1CCc2c(N3CCC(O)C3)c(F)cc3c(=O)c(C(=O)O)cn1c23 (stereo not shown) [Ia, 9-fluoro-8-(3-hydroxy-1-pyrrolidinyl)-5-methylene-1-oxo-6,7-dihydro-1H,5H-benzo(ij)quinolizine-2-carboxylic acid]	0.39 µg/mL (≈ 1.13 µM)	0.1 µg/mL (≈ 0.29 µM)	0.39 µg/mL (≈ 1.13 µM)	0.0125 µg/mL (≈ 0.0363 µM)	0.31 µg/mL (≈ 0.9 µM)	0.1 µg/mL (≈ 0.29 µM)	0.1 µg/mL (≈ 0.29 µM)	0.05 µg/mL (≈ 0.145 µM)	0.0125 µg/mL (≈ 0.0363 µM)	0.05 µg/mL (≈ 0.145 µM)	0.39 µg/mL (≈ 1.13 µM)	0.39 µg/mL (≈ 1.13 µM)	0.78 µg/mL (≈ 2.27 µM)	0.1 µg/mL (≈ 0.29 µM)	≤ 0.0063 µg/mL	0.1 µg/mL (≈ 0.29 µM)	antibacterial activity against Gram-positive bacteria (Gram-positive bacteria): very strong antibacterial activity; MIC (Ent. cloacae, 03400; Enterobacter cloacae, Ent. cloacae, 03400, Mueller-Hinton Broth, 10^6/ml, 37° C., 18 hours, read-out: MIC): 0.05 µg/mL (≈ 0.145 µM)
C=C1CCc2c(N3CCC(N)C3)c(F)cc3c(=O)c(C(=O)O)cn1c23 (stereo not shown) [Ib, 8-(3-amino-1-pyrrolidinyl)-9-fluoro-5-methylene-1-oxo-6,7-dihydro-1H,5H-benzo(ij)quinolizine-2-carboxylic acid]	0.1 µg/mL (≈ 0.291 µM)	0.025 µg/mL (≈ 0.0728 µM)	0.39 µg/mL (≈ 1.14 µM)	0.0125 µg/mL (≈ 0.0364 µM)	0.05 µg/mL (≈ 0.146 µM)	0.19 µg/mL (≈ 0.553 µM)	0.05 µg/mL (≈ 0.146 µM)	0.025 µg/mL (≈ 0.0728 µM)	0.0125 µg/mL (≈ 0.0364 µM)	0.1 µg/mL (≈ 0.291 µM)	0.05 µg/mL (≈ 0.146 µM)	0.39 µg/mL (≈ 1.14 µM)	0.1 µg/mL (≈ 0.291 µM)	0.05 µg/mL (≈ 0.146 µM)	0.025 µg/mL (≈ 0.0728 µM)	0.025 µg/mL (≈ 0.0728 µM)	antibacterial activity against Pseudomonas aeruginosa (Pseudomonas aeruginosa): very strong antibacterial activity; MIC (Ent. cloacae, 03400; Enterobacter cloacae, 03400, 18 h): 0.0125 µg/mL (≈ 0.0364 µM)
C=C1CCc2c(N3CCC(N)C3)c(F)cc3c(=O)c(C(=O)O)cn1c23 (stereo not shown) [Ib, hydrochloric acid addition salt, 8-(3-amino--pyrrolidinyl)-9-fluoro-5-methylene-6,7-dihydro-1-oxo-1H,5H-benzo(ij)quinolizine-2-carboxylic acid]	–	–	–	–	–	–	–	–	–	–	–	–	–	–	–	–	LD50 [2]: 252 mg/kg
